From patent publication US12600715B2, “Soluble guanylate cyclate activators for treating systemic sclerosis” (Boehringer Ingelheim International GmbH, priority 2022, dated 2026) come the findings set out here.

“Also recorded” adds a separate entry of the source. Like-named read-outs stand apart in the source and are kept apart here.

For experiment [1], the system named is bleomycin-induced dermal fibrosis. In kind it is in vivo.
Experiment [2] has as its system bleomycin-induced pulmonary fibrosis. As to the kind of experiment: Bleomycin-induced pulmonary fibrosis, therapeutic dosing. In kind it is in vivo, C57Bl/6 mice. On the procedure:
Compounds and formulation: Compound: Compound 114 (sample ID 30295026), batch 5 and EX00076637 (EX76637/riociguat), sample ID 17810950, batch 5 are both dissolved in Methylcellulose solution. The concentration is 10 mg/kg, 3 mg/kg and 1 mg/kg in a volume of 0.1 ml p.o. Nintedanib ethanesulfonate is prepared freshly every second day. The concentration is 60 mg/kg in a volume of 0.1 ml p.o. Hydroxyproline assay: The amount of collagen protein in skin samples is determined via hydroxyproline assay. After digestion of full skin thickness punch biopsies (Ø 3 mm) derived from the upper back in 6 M HCl for three hours at 120° C., the pH of the samples is adjusted to 6 with 6 M NaOH. For lungs, the middle lobe is analyzed. Afterwards, 0.06 M chloramine T is added to each sample and incubated for 20 min at room temperature. Next, 3.15 M perchloric acid and 20% p-dimethylaminobenzaldehyde are added and samples are incubated for additional 20 min at 60° C. The absorbance is determined at 557 nm with a Spectra MAX 190 microplate spectrophotometer using a standard curve generated with purified type I collagen (Sigma-Aldrich). In the model of bleomycin-induced lung fibrosis, fibrosis is induced by a single intratracheal injection of 50 μl bleomycin at day 0. Mice injected with equal volumes of 0.9% NaCl served as controls. The outcome is analyzed after 28 days. Treatment is started at day 15 post intratracheal installation of bleomycin and thus at a timepoint, when fibrosis is already preestablished. […] Histological evaluation of pulmonary fibrosis: Whole lungs are excised, fixed in 4% formalin for 6 h and embedded in paraffin. […] are cut and stained with Sirius Red. Images are captured using a Hamamatsu nano sumo S60 slide scanner microscope (Hamamatsu, Herrsching am Ammersee, Germany). Histological changes of pulmonary fibrosis are quantified by Ashcroft Scoring. The analysis is performed in a blinded manner. […] Statistics: All data are presented as median ±range, and differences between the groups are tested for their statistical significance by Mann-Whitney U non-parametric test for non-related samples.

Experiment [3] relates to platelet-rich plasma (PRP) from healthy donor volunteers. As to the kind of experiment: Activation of PRP by ADP and CXCL4 detection by ELISA. The format is cell-based, human. The following applies: for ADP-induced CXCL4 production: PRP of 10 donors. On the procedure:
• Compound 114 (sample ID: 30295026, batch: 5) • EX0076637 (sample ID: 17810950, batch: 5) • Nintedanib esilate (Boehringer Ingelheim, Manufacture #67653, lot #1078235) • EX0000076 (sample ID: 15614118, batch: 1) • Blood from healthy donor volunteers • Plastic blood collection tubes with sodium citrate (BD biosciences, 363083) • 50 ml conical tube (Corning, 430828) • BSA solution, 30% in saline, fatty acid free, aseptically filled (Sigma, A9205) • ADP (Sigma, 01905-250MG-F) • Tyrode's buffer (Sigma, T2397) • HEPES (Gibco, 15630-080) • DMSO (Sigma, D2650) • 1 ml deep well plate (Thermo Scientific, 260251) • Sterile 0.22 um PVDF filter plate (Millipore, MAGVS2210) • 96 well microplate (Thermo Scientific, 249946) • CXCL4 ELISA kit (Abcam, ab189573 and R&D systems, DPF40)
Buffer preparation: HEPES-Tyrode BSA buffer: Tyrode's buffer supplemented with 0.35% BSA and 5 mM HEPES.
Generating platelet-rich plasma (PRP): Blood is collected from healthy donor volunteers, into plastic sodium citrate tubes. The first two collected tubes are discarded. The remaining blood is processed within 30 mins of blood drawing. The blood is poured into 50 ml conical tubes without exceeding 35 ml per tube and centrifuged at 200×g for 16 minutes at room temperature with acceleration set at half of maximum speed and deceleration off. After centrifugation, the top layer (PRP) is carefully transferred to a new tube by avoiding the buffy coat. The PRP is rested at room temperature for 5-15 minutes. The PRP is then ready to use for experiment as described in protocol below.
Preparation of Compound: 5.2 mg of Compound 114 is dissolved in […] of 100% DMSO at a concentration of 20 mM. The compound solution is then diluted to 10 mM in 100% DMSO. 10 mM of the compound solution is then diluted to 1 mM and 100 μM in 100% DMSO and then secondarily diluted to 100 μM, 10 μM, and 1 μM in HEPES-Tyrode BSA buffer, making 10× stock solutions.
Preparation of Compound 114 and EX 76637: 5.2 mg of Compound 114 is dissolved in […] of 100% DMSO at a concentration of 20 mM. 2.3 mg of EX 76637 is dissolved in 109 μl of 100% DMSO at a concentration of 50 mM. The compound solution is then diluted to 10 mM in 100% DMSO. 10 mM of the compound solution is then diluted to 1 mM and […] in 100% DMSO and then secondarily diluted to 100 μM, 10 μM, and 1 μM in HEPES-Tyrode BSA buffer, making 10× stock solutions.
Preparation of nintedanib: 2.9 mg of nintedanib is dissolved in 446.3 μl of 100% DMSO at a concentration of 10 mM. The compound solution is then diluted to 100 μM in 100% DMSO. 100 μM of the compound solution is then diluted to […] in HEPES-Tyrode BSA buffer, making 10× stock solutions.
Preparation of EX 00000776 (MMF): 2.3 mg of EX 00000776 is dissolved in 530.5 μl of 100% DMSO at a concentration of 10 mM. The compound solution is then diluted to 5 mM in 100% DMSO. 5 mM of the compound solution is then diluted to 50 µM in HEPES-Tyrode BSA buffer, making 10× stock solutions.
ADP is dissolved in distilled water at concentration of 100 mM. 100 mM ADP are further diluted in HEPES-Tyrode BSA buffer to 10 mM and then secondarily diluted to 100 μM in HEPES-Tyrode BSA buffer, making a 10× stock.
Eighty or forty microliters of PRP is added into a well of a 1 ml deep well plate containing 560 μl or 280 μl of HEPES-Tyrode BSA buffer. Eighty or forty microliters of the 10× compound solution is added per well and incubated at 37° C./5% CO2 for 30 mins prior to addition of ADP. Eighty or forty microliters of 100 μM ADP is added per well and the plate incubated at 37° C./5% CO2 for 5 mins. After 5 minutes of incubation, 300 microliters per well of stimulated PRP is transferred to a sterile 0.22 um PVDF 96-well filter plate. A 96 well microplate is placed under the filter plate to collect supernatant after centrifugation at 1100 rpm for 5 mins. […]
On the technique in general: In an ELISA, binding on a coated surface is turned into a signal by an enzyme label.

The test system of experiment [4] is primary human microvascular endothelial cells. As to the kind of experiment: Hypoxia assay: hypoxia induced TGFβ2 production (MSD ELISA). In kind it is cell-based. On the procedure:
The assay uses the following materials and reagents: • Human dermal microvascular endothelial cells are obtained from (Lonza, 2543). • All experiments are performed with cells between passage 4 and passage 8. […]
Culturing endothelial cells: Dermal endothelial cells from each of the indicated donors are grown in T175 flasks with normal culturing media in 37° C./5% CO2 incubator. […] Cells are counted and plated into new T175 for further expansion or plated for the experiment as described in the protocol below. […]
• Day 0: Cells are trypsinized, counted and plated such that each well contains 8×10^3 cells and 100 μl of media and put in an incubator overnight (37° C.) • Day 1: Media is aspirated and replaced with basal media left at 37° C. overnight-24 hours • Day 2: Basal media is replaced with 90 μL of fresh basal media. […]
After treatment plates are left in 37° C. […] Supernatant is collected and TGFβ2 μlevels are measured using MSD ELISA.
Dermal microvascular endothelial cells from three normal donors are plated and grown to confluence. […] Cells and supernatants are collected after 48 hours and TGFβ2 μlevels are measured by MSD-ELISA. MSD plates are read using the MSD QuickPlex SQ 120 Instrument. […]

[5] abbreviates: 60 mg/kg qd for the last three weeks, vs bleomycin/vehicle mice.
Where [6] appears, read: treatment initiated two weeks after instillation of bleomycin until end of experiment.

`COC(=O)c1ccc2c(c1)NC(=O)/C2=C(\Nc1ccc(N(C)C(=O)CN2CCN(C)CC2)cc1)c1ccccc1` [nintedanib, Nintedanib ethanesulfonate]: in experiment [1] (setting [5]), the dermal thickness entry is “reduced”, the “hydroxyproline content (skin)” value was “lower” and the myofibroblast counts entry is listed as “decreased”. In experiment [2] (setting [6]), the Ashcroft scores result is “reduced”, the collagen-covered area entry is recorded as “reduced” and the “hydroxyproline content (lung)” value is “reduced”. Further, the “effect on ADP-induced CXCL4 production” value in experiment [3] (standards of care, 10 μM ADP) is recorded as “ineffective; also recorded: Minimal to no effect”.

In the case of `COC(=O)N(C)c1c(N)nc(-c2nn(Cc3ccccc3F)c3ncccc23)nc1N` [EX76637, riociguat], in experiment [1] (doses of 1 mg/kg), the bleomycin-induced dermal fibrosis result was “also ameliorated bleomycin-induced dermal fibrosis” and the “effects on dermal fibrosis compared with Compound 114” value is on record as “comparable to those of Compound 114”. Besides, the bleomycin-induced pulmonary fibrosis result in experiment [2] (1 mg/kg bid p.o.) was “also ameliorated bleomycin-induced pulmonary fibrosis”.

Turning to `COC(=O)N(C)c1c(N)nc(-c2nn(Cc3ccccc3F)c3ncccc23)nc1N` [riociguat], the “effect on ADP-induced CXCL4 production” value in experiment [3] (doses equivalent to Compound 114, 10 μM ADP) was “minimal effect; also recorded: Minimal to no effect”.

`CCOc1c(C(=O)O)cnn1-c1cccc(-c2cccc(C)c2OCc2ccc3c(c2C)CCN(C2CCOCC2)C3)n1` [Compound 114]: the “hypoxia-driven TGFβ2 production, statistical significance of reduction” value in experiment [4] (10 μM Compound 114, hypoxia 1% O2) is listed as “Statistically significant reduction”. In addition, in experiment [4] (hypoxia 1% O2, 48 hrs, ODQ, supernatant, cells from 3 donors), the “hypoxia-induced TGFβ2 production” value is on record as “inhibits hypoxia-induced TGFβ2 levels; also recorded: reduced hypoxia-driven TGFβ2 production in a concentration-dependent manner”. In addition, in experiment [1] (doses of 1, 3 or 5 mg/kg for the last two weeks), the bleomycin-induced dermal fibrosis entry is on record as “also ameliorated bleomycin-induced dermal fibrosis”. The “effects on dermal fibrosis compared with nintedanib” value in experiment [1] (doses of 1, 3 or 5 mg/kg vs nintedanib 60 mg/kg qd) was “within the range of those observed with nintedanib”. Further, the “dose-dependency of effect on dermal fibrosis” value in experiment [1] (doses of 1, 3 or 5 mg/kg, trends for dermal thickness and myofibroblast counts) is given as “no clear dose-dependency was observed”. Also, in experiment [2] (doses of 1, 3 or 10 mg/kg), the “fibrotic readouts of pulmonary fibrosis” value is “significantly improved the fibrotic readouts”. In addition, the “dose trend for the Ashcroft score” value in experiment [2] (doses of 1, 3 or 10 mg/kg, differences did not reach statistical significance) is “tendency towards more pronounced effects with higher doses”. Further, the “ADP-induced CXCL4 production” value in experiment [3] (0.1 μM, 10 μM ADP) is reported as “reduced ADP-induced CXCL4 production in 9 out of 10 donors”; in experiment [3] (1 μM and 10 μM, 10 μM ADP), “attenuated the ADP-induced CXCL4 production in all 10 donors”. Also, in experiment [3] (10 μM, 1 μM, 0.1 μM, 10 μM ADP, compared to ADP/DMSO), the “ADP-induced CXCL4 production, percentage of Max of all donors” value was “significantly reduced ADP-induced CXCL4 production in a dose-dependent manner”. Besides, in experiment [3] (FIG. 5), the “potency/efficacy on ADP-induced CXCL4 production relative to nintedanib, mycophenolate (MMF) and riociguat” value is reported as “more potent/more efficacious”.
